According to US20080045486A1, “OCULAR ADMINISTRATION OF TESTOSTERONE” (priority 2006, published 2008):

Experiments:
[1] = Safety and pharmacokinetics study of testosterone ophthalmic solutions for up to 14 days in postmenopausal women; type: in vivo, human; conditions: for equivalent absorbed daily dose: assuming production rate 0.125 mg/day; for median Cmax of serum testosterone concentration: each eye twice daily, day 13, healthy postmenopausal women
Description: A clinical study entitled “A Single-Center, Double Masked, Parallel, Dose-Ranging, Vehicle Controlled Study Evaluating the Safety and Pharmacokinetics of Testosterone (0.03%, 0.1%, 0.3%, and 0.6%) Ophthalmic Solutions for up to 14 Days in Postmenopausal Women” was conducted to determine the effectiveness of the ocular administration of testosterone. This study was a randomized, single-center, double-masked, parallel-group study of five treatment groups, with each subject acting as their own baseline control for serum testosterone concentrations. Subjects received testosterone ophthalmic solution 0.03%, 0.1%, 0.3%, 0.6% or vehicle ophthalmic solution in each eye twice daily for 14 days. Each subject had blood withdrawn for the measurement of serum testosterone concentrations. On day 13, blood samples were taken prior to the morning dose (time 0), and at 5, 10, 20, 30, and 45 minutes, 1, 2, 4, 6, 8, and 12 hours post-dose. On day −1, blood samples were taken at the same time as day 13 to evaluate the baseline serum testosterone levels. On days −6, 7, 14, and 27, one blood sample was taken at the same time as day 13 predose draw to evaluate the trough serum testosterone levels (there were no dosing on days −6, −1, and 27). […] Serum testosterone concentrations were assayed using a validated double antibody radioimmunoassay method with a lower limit of quantitation (LLOQ) at 29 pg/mL or 2.9 ng/dL.

[2] = 16-week dose-ranging study of testosterone ophthalmic solutions in patients with keratoconjunctivitis sicca, serum pharmacokinetics; type: in vivo, human; conditions: for increase of serum testosterone concentration over the endogenous baseline / concentration at 10 min: 10 minutes after dosing; for increase of serum testosterone concentration over the endogenous baseline: male patients; for concentration at 10 min: human, serum, other: ophthalmic solution, eye drop, one drop twice daily, female patients, baseline approximately 20 ng/dL
Description: Another clinical study entitled “A Multi-Center, Parallel, Randomized, Double-Masked, Vehicle-Controlled, Dose-Ranging Study to Evaluate the Safety, Tolerability and Efficacy of Testosterone 0.01%, 0.1%, and 0.3% Ophthalmic Solutions Administered Twice Daily for 16 weeks in Patients with Keratoconjunctivitis Sicca (KCS)” was conducted to determine the effectiveness of the ocular administration of testosterone in both women and men. This study was a randomized, multi-center, double-masked, parallel-group study of three treatment groups and one vehicle group. Patients were randomized to either 0.01%, 0.1%, 0.3% testosterone or vehicle of 0.3% testosterone ophthalmic solution. In the treatment phase, patients were instructed to instill one drop of the randomly assigned masked treatment twice daily (in the morning upon waking and before bedtime) for 16 weeks. Data from 135 patients (100 females and 35 males) were included in the pharmacokinetic data analysis. A single blood sample (20 mL) was taken from each patient pre-dose and at 10 minutes post dose on day 0, weeks 1, 4, 8, 12, and 16 for the determination of serum testosterone, dihydrotestosterone, 3-alpha-androstanediol glucuronide and sex hormone binding globulin concentrations. Serum concentrations of testosterone and dihydrotestosterone were determined by a validated gas chromatography-mass spectrometry (GC-MS) method with a quantitation range for DHT of 0.1 to 100 ng/dL and for testosterone of 1.0 to 1000 ng/dL. Serum concentrations of 3-alpha-androstanediol-glucuronide were quantitated by a validated radioimmunoassay method with a range of quantitation from 0.800 to 100 ng/mL, and serum concentrations of sex hormone binding globulin were determined using a validated two-site immunoradiometric assay (IRMA) method with a range of quantitation of 5 to 320 nmol/L for a 1:100 diluted sample.

Compound: C[C@]12CC[C@H]3[C@@H](CCC4=CC(=O)CC[C@@]43C)[C@@H]1CC[C@@H]2O [testosterone, (17β)-17-Hydroxyandrost-4-en-3-one]
- equivalent absorbed daily dose ([1]; 0.03% formulation BID both eyes): 0.024 mg
- average increase of serum testosterone level ([1]; 0.03% formulation, 50 μL BID to both eyes (0.06 mg/day)): 3.8 ng/dL
- median Cmax of serum testosterone concentration ([1]; 0.03% ophthalmic solution): 93.5 ng/dL
- equivalent absorbed daily dose ([1]; 0.1% formulation BID both eyes): 0.094 mg
- average increase of serum testosterone level ([1]; 0.1% formulation, 50 μL BID to both eyes (0.2 mg/day)): 15 ng/dL
- median Cmax of serum testosterone concentration ([1]; 0.1% ophthalmic solution): 193 ng/dL
- equivalent absorbed daily dose ([1]; 0.3% formulation BID both eyes): 0.15 mg
- average increase of serum testosterone level ([1]; 0.3% formulation, 50 μL BID to both eyes (0.6 mg/day)): 24 ng/dL
- median Cmax of serum testosterone concentration ([1]; 0.3% ophthalmic solution): 237 ng/dL
- equivalent absorbed daily dose ([1]; 0.6% formulation BID both eyes): 0.31 mg
- average increase of serum testosterone level ([1]; 0.6% formulation, 50 μL BID to both eyes (1.2 mg/day)): 49 ng/dL
- median Cmax of serum testosterone concentration ([1]; 0.6% ophthalmic solution): 457 ng/dL
- time for serum testosterone concentration to return to the baseline level ([1]; after dosing of testosterone ophthalmic solution): 12 h
- fraction of the peak serum level gone ([1]; in 2 hours after ophthalmical dosing): about 90%
- increase of serum testosterone concentration over the endogenous baseline ([2]; 0.1% solution): 13%
- increase of serum testosterone concentration over the endogenous baseline ([2]; 0.3% solution): 36%
- safety concern from serum pharmacokinetic data ([2]; 4 month dosing period, 0.01%, 0.1% and 0.3% dose levels): did not indicate a safety concern
- concentration at 10 min ([2]; 0.01% solution): 0.35 ng/mL
- concentration at 10 min ([2]; 0.1% solution): 2 ng/mL
- concentration at 10 min ([2]; 0.3% solution): 3.5 ng/mL
